Assay results taken from patent publication US20040127492A1 (Pharmacia Corporation, priority 2002, published 2004).
Where two headings read alike, the source gives them in different places.

Key:
MK-3 = MK-3 (Homo sapiens, UniProt Q16644); experiment: MK-3 inhibition IC50 (similar method to MK-2, with appropriate modifications); assay type: biochemical; details: read-out: MK-3 Avg. IC50
Method: In practice, the selectivity of a cyclic pyrazole MK-2 inhibitor varies depending upon the condition under which the test is performed and on the inhibitors being tested. However, for the purposes of this specification, the selectivity of a cyclic pyrazole MK-2 inhibitor inhibitor can be measured as a ratio of the in vitro or in vivo IC50 value for inhibition of MK-3, divided by the IC50 value for inhibition of MK-2 (IC50 MK-3/IC50 MK-2). […] The MK-2 or MK-3 inhibiting activity of any of the compounds described herein can be determined by any one of several methods that are well known to those having skill in the art of enzyme activity testing. […] A similar method, with appropriate modifications, Can be used to measure MK-3 inhibitory activity. In addition, the efficacy of one of the present MK-2 inhibiting compounds in therapeutic applications can be determined by testing for inhibition of TNFα production in cell culture and in animal model assays.

MAPKAPK2 (MK-2) = MAPKAPK2 (MK-2) (Homo sapiens, UniProt P49137); experiment: Determination of MK-2 IC50 (HSP-peptide phosphorylation, anion exchange resin capture assay); assay type: biochemical
Method: Determination of MK-2 IC50:
Recombinant MAPKAPK2 was phosphorylated at a concentration of 42-78 μM by incubation with 0.23 μM of active p38α in 50 mM HEPES, 0.1 mM EDTA, 10 mM magnesium acetate, and 0.25 mM ATP, pH 7.5 for one hour at 30° C.
The phosphorylation of HSP-peptide ([…]) by MAPKAPK2 was measured using an anion exchange resin capture assay method. The reaction was carried out in 50 mM β-glycerolphosphate, 0.04% BSA, 10 mM magnesium acetate, 2% DMSO and 0.8 mM dithiotheritol, pH 7.5 in the presence of the HSP-peptide with 0.2 μCi [γ^33P]ATP and 0.03 mM ATP. The reaction was initiated by the addition of 15 nM MAPKAPK2 and was allowed to incubate at 30° C. for 30 min. The reaction was terminated and [γ^33P]ATP was removed from solution by the addition of 150 μl of AG 1×8 ion exchange resin in 900 mM sodium formate pH 3.0. A 50 μl aliquot of head volume was removed from the quenched reaction mixture and added to a 96-well plate, 150 μl of Microscint-40 (Packard) was added and the amount of phosphorylated-peptide was determined. Allow the Microscint to sit in the plates for 60 minutes prior to counting.
Compounds are evaluated as potential inhibitors of the MK-2 kinase by measuring their effects on MK-2 phosphorylation of the peptide substrate. Compounds may be screened initially at two concentrations prior to determination of IC50 values. Screening results are expressed as percent inhibition at the concentrations of compound tested. For IC50 value determinations, Compounds are tested at six concentrations in ten-fold serial dilutions with each concentration tested in triplicate. Results are expressed as IC50 values in micromolar. The assay is performed at a final concentration of 2% DMSO.

[1] = Table 2, pyrazolylpyrazole MK-2 inhibitors
[2] = Table 2, pyrazolylpyrazole MK-2 inhibitors, read-out: MK-2 Avg. IC50
[3] = Table 1, phenoxypyrazole MK-2 inhibitors
[4] = Table 1, phenoxypyrazole MK-2 inhibitors, read-out: MK-2 Avg, IC50

Sequence of MK-3 (Q16644 whole entry, species assumed): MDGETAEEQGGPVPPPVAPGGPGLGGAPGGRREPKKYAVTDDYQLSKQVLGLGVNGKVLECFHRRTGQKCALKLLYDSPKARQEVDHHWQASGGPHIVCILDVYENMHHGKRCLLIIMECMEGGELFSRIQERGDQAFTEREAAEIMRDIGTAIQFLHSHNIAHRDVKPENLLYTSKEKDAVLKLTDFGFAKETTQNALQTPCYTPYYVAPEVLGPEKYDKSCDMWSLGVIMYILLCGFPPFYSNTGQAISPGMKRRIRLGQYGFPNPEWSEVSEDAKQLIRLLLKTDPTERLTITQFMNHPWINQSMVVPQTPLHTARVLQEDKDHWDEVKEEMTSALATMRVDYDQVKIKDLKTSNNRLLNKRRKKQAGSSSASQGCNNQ
Sequence of MAPKAPK2 (MK-2) (P49137 whole entry, species assumed): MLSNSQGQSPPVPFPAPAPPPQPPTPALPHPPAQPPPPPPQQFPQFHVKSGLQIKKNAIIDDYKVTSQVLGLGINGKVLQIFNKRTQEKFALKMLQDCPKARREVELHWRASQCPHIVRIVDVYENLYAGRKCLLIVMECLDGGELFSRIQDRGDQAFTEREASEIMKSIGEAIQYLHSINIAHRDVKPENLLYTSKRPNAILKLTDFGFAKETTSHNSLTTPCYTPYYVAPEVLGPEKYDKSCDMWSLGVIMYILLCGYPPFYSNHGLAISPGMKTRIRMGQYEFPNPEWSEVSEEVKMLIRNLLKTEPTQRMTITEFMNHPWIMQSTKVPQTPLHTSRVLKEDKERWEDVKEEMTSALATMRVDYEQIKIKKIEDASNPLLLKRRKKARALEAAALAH

O=C1NCCCn2nc3c(c21)CCc1[nH]nc(SCc2ccccc2)c1-3 [Example 16]
IC50 (MK-3; [1]): 56 µM
IC50 (MAPKAPK2 (MK-2); [2]): 23.8 µM

COc1ccc(-n2nc(C(=O)O)c3c2-c2ccc(OC)cc2CC3)cc1 [Example 162]
IC50 (MK-3; [3]): > 200 µM
IC50 (MAPKAPK2 (MK-2); [4]): > 200 µM

O=C1NCCn2nc3c(c21)CCc1cnc(/C=C/c2ccc(O)cc2)cc1-3 [Example 29]
IC50 (MK-3): 27.5 µM
IC50 (MAPKAPK2 (MK-2); read-out: MK-2 Avg. IC50): 0.164 µM

COc1cc2c(cc1-c1cccc(S(C)(=O)=O)c1)-c1nn(CCCNC(=O)OC(C)(C)C)c(C(=O)O)c1CC2 [Example 57]
IC50 (MK-3; [3]): > 200 µM
IC50 (MAPKAPK2 (MK-2); [4]): 143 µM

CC(C)(C)c1ccc(-c2cc3c(cn2)CCc2c-3nn(CCCN)c2C(=O)O)cc1 [Example 22]
IC50 (MK-3): 0.426 µM
IC50 (MAPKAPK2 (MK-2); read-out: MK-2 Avg. IC50): 0.112 µM

CCOC(=O)c1c2c(nn1CCNC(=O)OC(C)(C)C)-c1cnn(C(c3ccccc3)(c3ccccc3)c3ccccc3)c1CC2 [Example 59]
IC50 (MK-3; [1]): ≥ 200 µM
IC50 (MAPKAPK2 (MK-2); [2]): ≥ 200 µM

COc1cc2c(cc1OC)-c1n[nH]c(C(=O)n3ccnc3)c1CC2 [Example 169]
IC50 (MK-3; [3]): > 200 µM
IC50 (MAPKAPK2 (MK-2); [4]): > 200 µM

NCCn1nc2c(c1C(=O)O)CCc1cnccc1-2 [Example 68]
IC50 (MK-3): 43.1 µM
IC50 (MAPKAPK2 (MK-2); read-out: MK-2 Avg. IC50): 0.706 µM

Cc1ccc(C(C)CCNCCCn2nc3c(c2C(=O)O)CCc2cnccc2-3)o1 (stereo not shown) [Example 59]
IC50 (MK-3): 22.5 µM
IC50 (MAPKAPK2 (MK-2); read-out: MK-2 Avg. IC50): 0.574 µM

O=C(O)c1nn(CC(F)(F)F)c2c1CCc1c-2cnn1C(c1ccccc1)(c1ccccc1)c1ccccc1 [Example 22]
IC50 (MK-3; [1]): 195 µM
IC50 (MAPKAPK2 (MK-2); [2]): 68.3 µM

COC(=O)c1c2c(nn1CCNC(=O)OC(C)(C)C)-c1cc(Br)c(OC)cc1CC2 [Example 185]
IC50 (MK-3; [3]): > 200 µM
IC50 (MAPKAPK2 (MK-2); [4]): > 200 µM

CCOC(=O)c1c2c(nn1CCCN)-c1cc(/C=C/c3ccccc3)ncc1CC2 [Example 38]
IC50 (MK-3; Table 5, other cyclic pyrazole MK-2 inhibiting compounds): > 20 µM
IC50 (MAPKAPK2 (MK-2); Table 5, other cyclic pyrazole MK-2 inhibiting compounds, read-out: MK-2 Avg. IC50): 3.61 µM

COc1ccc2c(c1)CCc1c(C(N)=O)nn(-c3ccc(S(N)(=O)=O)cc3)c1-2 [Example 179]
IC50 (MK-3; [3]): > 200 µM
IC50 (MAPKAPK2 (MK-2); [4]): > 200 µM

Cc1ccc(CCNCCCn2nc3c(c2C(=O)O)CCc2cnccc2-3)cc1 [Example 72]
IC50 (MK-3): 17.2 µM
IC50 (MAPKAPK2 (MK-2); read-out: MK-2 Avg. IC50): 0.89 µM

NCCCn1nc2c(c1C(=O)O)CCc1[nH]ncc1-2 [Example 2]
IC50 (MK-3; [1]): 35.3 µM
IC50 (MAPKAPK2 (MK-2); [2]): 2.17 µM

COc1cc2c(cc1-c1cccc([N+](=O)[O-])c1)-c1nn(CCNC(=O)OC(C)(C)C)c(C(=O)O)c1CC2 [Example 44]
IC50 (MK-3; [3]): > 200 µM
IC50 (MAPKAPK2 (MK-2); [4]): 82.2 µM

CC1Cc2c(nn(CCCN)c2C(=O)O)-c2ccc(O)cc21 (stereo not shown) [Example 14]
IC50 (MK-3; [3]): > 200 µM
IC50 (MAPKAPK2 (MK-2); [4]): 10.7 µM

NCCCn1nc2c(c1C(=O)O)CCc1cc(O)c(CCc3ccc(Cl)cc3)cc1-2 [Example 6]
IC50 (MK-3; [3]): 38.2 µM
IC50 (MAPKAPK2 (MK-2); [4]): 2.29 µM

O=C1NC(CO)Cn2nc3c(c21)CCc1cnccc1-3 (stereo not shown) [Example 71]
IC50 (MK-3): 35 µM
IC50 (MAPKAPK2 (MK-2); read-out: MK-2 Avg. IC50): 0.825 µM

NCCCn1nc2c(c1C(=O)O)CCc1[nH]nc(SCc3ccccc3)c1-2 [Example 6]
IC50 (MK-3; [1]): 22.1 µM
IC50 (MAPKAPK2 (MK-2); [2]): 2.89 µM

C=CCC1Cc2c(C(N)=O)n[nH]c2-c2ccc(O)cc21 (stereo not shown) [Example 56]
IC50 (MK-3; [3]): > 200 µM
IC50 (MAPKAPK2 (MK-2); [4]): 139 µM

CCOC(=O)c1[nH]nc2c1CCc1c-2cnn1-c1ccccc1 [Example 47]
IC50 (MK-3; [1]): ≥ 200 µM
IC50 (MAPKAPK2 (MK-2); [2]): ≥ 200 µM

NCCCn1nc2c(c1C(=O)O)CCc1cnc(-c3ccc(O)cc3)cc1-2 [Example 3]
IC50 (MK-3): 0.361 µM
IC50 (MAPKAPK2 (MK-2); read-out: MK-2 Avg. IC50): 0.0189 µM

CCOC(=O)c1[nH]nc2c1CCc1c-2ccc(O)c1Br [Example 53]
IC50 (MK-3; [3]): > 200 µM
IC50 (MAPKAPK2 (MK-2); [4]): 116 µM

CC(C)(C)OC(=O)NCCCn1nc2c(c1C(=O)O)CCc1cc(O)ccc1-2 [Example 72]
IC50 (MK-3; [3]): > 200 µM
IC50 (MAPKAPK2 (MK-2); [4]): 181 µM

COc1cc2c(cc1-c1cccc(C(F)(F)F)c1)-c1nn(CCCNC(=O)OC(C)(C)C)c(C(=O)O)c1CC2 [Example 41]
IC50 (MK-3; [3]): > 200 µM
IC50 (MAPKAPK2 (MK-2); [4]): 63.8 µM

CSc1n[nH]c2c1-c1nn3c(c1CC2)C(=O)NCCC3 [Example 11]
IC50 (MK-3; [1]): ≥ 200 µM
IC50 (MAPKAPK2 (MK-2); [2]): 10.5 µM

COc1cc2c(cc1CCC(F)(F)F)-c1nn(CCCNC(=O)OC(C)(C)C)c(C(=O)O)c1CC2 [Example 54]
IC50 (MK-3; [3]): > 200 µM
